Measurements from PubChem BioAssay AID1963979 (Molecular Pharmacology Branch, DTP, NCI, 2024).
Each block holds one molecule with its values, some of them ahead of it.

System: 361931-004-R-J1-PDC multicell spheroid viability
Test: Anticancer human tumor 361931-004-R-J1-PDC patient-derived colon adenocarcinoma cell line growth inhibition [PI3K]
Conditions: for IC50: curve of first compound; for viability, T/C: stronger effect = lower value
Method in brief: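 Spheroid viability read-out. Co-cultures contained the tumor line plus HUVEC and human MSCs. Each agent was paired with a PI3K inhibitor (inavolisib, alpelisib, duvelisib, copanlisib) across half-log dilutions starting at clinical Cmax, or at 10 microM when Cmax was unknown.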

[1] = second compound 0.0316 µM, first compound 0.0316 µM
[2] = second compound 0.0316 µM, first compound 0.1 µM
[3] = second compound 0.0316 µM, first compound 0.316 µM
[4] = second compound 0.0316 µM, first compound 1 µM
[5] = second compound 0.0316 µM, first compound 3.16 µM
[6] = second compound 0.0316 µM, first compound 10 µM
[7] = second compound 0.1 µM, first compound 0.0316 µM
[8] = second compound 0.1 µM, first compound 0.1 µM
[9] = second compound 0.1 µM, first compound 0.316 µM
[10] = second compound 0.1 µM, first compound 1 µM
[11] = second compound 0.1 µM, first compound 3.16 µM
[12] = second compound 0.1 µM, first compound 10 µM
[13] = second compound 0.316 µM, first compound 0.0316 µM
[14] = second compound 0.316 µM, first compound 0.1 µM
[15] = second compound 0.316 µM, first compound 0.316 µM
[16] = second compound 0.316 µM, first compound 1 µM
[17] = second compound 0.316 µM, first compound 3.16 µM
[18] = second compound 0.316 µM, first compound 10 µM
[19] = second compound 1 µM, first compound 0.0316 µM
[20] = second compound 1 µM, first compound 0.1 µM
[21] = second compound 1 µM, first compound 0.316 µM
[22] = second compound 1 µM, first compound 1 µM
[23] = second compound 1 µM, first compound 3.16 µM
[24] = second compound 1 µM, first compound 10 µM
[25] = second compound 3.16 µM, first compound 0.0316 µM
[26] = second compound 3.16 µM, first compound 0.1 µM
[27] = second compound 3.16 µM, first compound 0.316 µM
[28] = second compound 3.16 µM, first compound 1 µM
[29] = second compound 3.16 µM, first compound 3.16 µM
[30] = second compound 3.16 µM, first compound 10 µM
[31] = second compound 10 µM, first compound 0.0316 µM
[32] = second compound 10 µM, first compound 0.1 µM
[33] = second compound 10 µM, first compound 0.316 µM
[34] = second compound 10 µM, first compound 1 µM
[35] = second compound 10 µM, first compound 3.16 µM
[36] = second compound 10 µM, first compound 10 µM
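Further: spheroids exposed to agents for seven days before readout.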

IC50 (second compound 0.00316 µM): > 10 µM
IC50 (second compound 0.01 µM): > 10 µM
IC50 (second compound 0.0316 µM): > 10 µM
IC50 (second compound 0.1 µM): > 10 µM
IC50 (second compound 0.316 µM): > 10 µM
IC50 (second compound 1 µM): 5.85 µM
Compound: C[C@@H](NC(=O)c1ncnc(N)c1Cl)c1ncc(C(=O)Nc2cc(C(F)(F)F)c(Cl)cn2)s1 + CC(Nc1ccc2c(c1)OCCn1cc(N3C(=O)OCC3C(F)F)nc1-2)C(N)=O
viability, T/C (second compound 0.00316 µM, first compound 0.0316 µM): 110%
viability, T/C (second compound 0.00316 µM, first compound 0.1 µM): 102%
viability, T/C (second compound 0.00316 µM, first compound 0.316 µM): 105%
viability, T/C (second compound 0.00316 µM, first compound 1 µM): 91.2%
viability, T/C (second compound 0.00316 µM, first compound 3.16 µM): 96.8%
viability, T/C (second compound 0.00316 µM, first compound 10 µM): 84.6%
viability, T/C (second compound 0.01 µM, first compound 0.0316 µM): 110%
viability, T/C (second compound 0.01 µM, first compound 0.1 µM): 109%
viability, T/C (second compound 0.01 µM, first compound 0.316 µM): 98%
viability, T/C (second compound 0.01 µM, first compound 1 µM): 89.6%
viability, T/C (second compound 0.01 µM, first compound 3.16 µM): 95%
viability, T/C (second compound 0.01 µM, first compound 10 µM): 75.4%
viability, T/C [1]: 101%
viability, T/C [2]: 105%
viability, T/C [3]: 92.2%
viability, T/C [4]: 99%
viability, T/C [5]: 82.4%
viability, T/C [6]: 73.1%
viability, T/C [7]: 97.6%
viability, T/C [8]: 97.1%
viability, T/C [9]: 92.1%
viability, T/C [10]: 88.7%
viability, T/C [11]: 89.1%
viability, T/C [12]: 59.9%
viability, T/C [13]: 97.9%
viability, T/C [14]: 86.8%
viability, T/C [15]: 75.9%
viability, T/C [16]: 78.2%
viability, T/C [17]: 70.5%
viability, T/C [18]: 47.2%
viability, T/C [19]: 77.9%
viability, T/C [20]: 80.2%
viability, T/C [21]: 73.5%
viability, T/C [22]: 66%
viability, T/C [23]: 61.4%
viability, T/C [24]: 41.5%

IC50 (second compound 0.0316 µM): > 10 µM
IC50 (second compound 0.1 µM): > 10 µM
IC50 (second compound 0.316 µM): > 10 µM
IC50 (second compound 1 µM): > 10 µM
IC50 (second compound 3.16 µM): 9.79 µM
IC50 (second compound 10 µM): 5.14 µM
Compound: Cn1nccc1Nc1nccc(-c2ccn(C(CO)c3ccc(Cl)c(F)c3)c(=O)c2)n1 (stereo unspecified) + CC(Nc1ncnc2nc[nH]c12)c1cc2cccc(Cl)c2c(=O)n1-c1ccccc1
viability, T/C [1]: 101%
viability, T/C [2]: 98.8%
viability, T/C [3]: 100%
viability, T/C [4]: 97.7%
viability, T/C [5]: 87.9%
viability, T/C [6]: 60.2%
viability, T/C [7]: 101%
viability, T/C [8]: 99.4%
viability, T/C [9]: 97%
viability, T/C [10]: 93.2%
viability, T/C [11]: 86.7%
viability, T/C [12]: 65.2%
viability, T/C [13]: 107%
viability, T/C [14]: 107%
viability, T/C [15]: 86.5%
viability, T/C [16]: 93.8%
viability, T/C [17]: 89.4%
viability, T/C [18]: 61.3%
viability, T/C [19]: 109%
viability, T/C [20]: 99.5%
viability, T/C [21]: 99.3%
viability, T/C [22]: 90.8%
viability, T/C [23]: 92.6%
viability, T/C [24]: 56.5%
viability, T/C [25]: 107%
viability, T/C [26]: 105%
viability, T/C [27]: 100%
viability, T/C [28]: 92.2%
viability, T/C [29]: 87.1%
viability, T/C [30]: 48.3%
viability, T/C [31]: 109%
viability, T/C [32]: 99.5%
viability, T/C [33]: 92.1%
viability, T/C [34]: 83.8%
viability, T/C [35]: 64.1%
viability, T/C [36]: 31.4%

IC50 (second compound 0.0316 µM): 5.36 µM
IC50 (second compound 0.1 µM): 5.02 µM
IC50 (second compound 0.316 µM): 5.04 µM
IC50 (second compound 1 µM): 5.15 µM
IC50 (second compound 3.16 µM): 5.25 µM
IC50 (second compound 10 µM): 4.96 µM
Compound: CC1(C)CCC(CN2CCN(c3ccc(C(=O)NS(=O)(=O)c4ccc(NCC5CCOCC5)c([N+](=O)[O-])c4)c(Oc4cnc5[nH]ccc5c4)c3)CC2)=C(c2ccc(Cl)cc2)C1 + CC(Nc1ncnc2nc[nH]c12)c1cc2cccc(Cl)c2c(=O)n1-c1ccccc1
viability, T/C [1]: 105%
viability, T/C [2]: 98.3%
viability, T/C [3]: 104%
viability, T/C [4]: 93.4%
viability, T/C [5]: 89.4%
viability, T/C [6]: 3.37%
viability, T/C [7]: 110%
viability, T/C [8]: 95.2%
viability, T/C [9]: 97.7%
viability, T/C [10]: 102%
viability, T/C [11]: 81.2%
viability, T/C [12]: 3.38%
viability, T/C [13]: 108%
viability, T/C [14]: 97.2%
viability, T/C [15]: 106%
viability, T/C [16]: 106%
viability, T/C [17]: 81.7%
viability, T/C [18]: 3.3%
viability, T/C [19]: 103%
viability, T/C [20]: 99.2%
viability, T/C [21]: 106%
viability, T/C [22]: 102%
viability, T/C [23]: 84%
viability, T/C [24]: 3.62%
viability, T/C [25]: 102%
viability, T/C [26]: 109%
viability, T/C [27]: 96%
viability, T/C [28]: 96.5%
viability, T/C [29]: 86.8%
viability, T/C [30]: 3.29%
viability, T/C [31]: 109%
viability, T/C [32]: 99.6%
viability, T/C [33]: 107%
viability, T/C [34]: 107%
viability, T/C [35]: 80.1%
viability, T/C [36]: 3.09%
